Like-named read-outs stand apart in the source and are kept apart here.
Tests used:
MDA, -MB-435 = test: NCI one-dose screening, breast cancer MDA, -MB-435; type: cell-based, human; settings: 10 μM; listed under Melanoma
PC-3 = test: NCI one-dose screening, prostate cancer PC-3; type: cell-based, human; settings: 10 μM
SR = test: NCI one-dose screening, leukemia SR; type: cell-based, human; settings: 10 μM
TK-10 = test: NCI one-dose screening, renal cancer TK-10; type: cell-based, human; settings: 10 μM
IGROV1 = test: NCI one-dose screening, ovarian cancer IGROV1; type: cell-based, human; settings: 10 μM
SK-OV-3 = test: NCI one-dose screening, ovarian cancer SK-OV-3; type: cell-based, human; settings: 10 μM
SNB-75 = test: NCI one-dose screening, CNS cancer SNB-75; type: cell-based, human; settings: 10 μM
UACC-257 = test: NCI one-dose screening, melanoma UACC-257; type: cell-based, human; settings: 10 μM
786-O = test: NCI one-dose screening, renal cancer 786-O; type: cell-based, human; settings: 10 μM
DU145 = test: NCI one-dose screening, prostate cancer DU145; type: cell-based, human; settings: 10 μM
SF-268 = test: NCI one-dose screening, CNS cancer SF-268; type: cell-based, human; settings: 10 μM
OVCAR-3 = test: NCI one-dose screening, ovarian cancer OVCAR-3; type: cell-based, human; settings: 10 μM
HOP-62 = test: NCI one-dose screening, non-small cell lung cancer HOP-62; type: cell-based, human; settings: 10 μM
SF-295 = test: NCI one-dose screening, CNS cancer SF-295; type: cell-based, human; settings: 10 μM
HCT-116 = test: NCI one-dose screening, colon cancer HCT-116; type: cell-based, human; settings: 10 μM
U251 = test: NCI one-dose screening, CNS cancer U251; type: cell-based, human; settings: 10 μM
[1] = NCI one-dose screening, renal cancer A489; type: cell-based, human; settings: 10 μM
NCl/ADR-RES = test: NCI one-dose screening, breast cancer NCl/ADR-RES; type: cell-based, human; settings: 10 μM; listed under Ovarian cancer
CAKI-1 = test: NCI one-dose screening, renal cancer CAKI-1; type: cell-based, human; settings: 10 μM
SF-539 = test: NCI one-dose screening, CNS cancer SF-539; type: cell-based, human; settings: 10 μM
CCRF-CEM = test: NCI screening platform one-dose single concentration screening, leukemia CCRF-CEM; type: cell-based, human; settings: 10 μM
NCI-H322M = test: NCI one-dose screening, non-small cell lung cancer NCI-H322M; type: cell-based, human; settings: 10 μM; Non-small cell lung cancer
HS 578-T = test: NCI one-dose screening, breast cancer HS 578-T; type: cell-based, human; settings: 10 μM; Breast cancer
MDA-MB-468 = test: NCI one-dose screening, breast cancer MDA-MB-468; type: cell-based, human; settings: 10 μM
M14 = test: NCI one-dose screening, melanoma M14; type: cell-based, human; settings: 10 μM
SNB-19 = test: NCI one-dose screening, CNS cancer SNB-19; type: cell-based, human; settings: 10 μM
MALME-3M = test: NCI one-dose screening, melanoma MALME-3M; type: cell-based, human; settings: 10 μM
SK-MEL-5 = test: NCI one-dose screening, melanoma SK-MEL-5; type: cell-based, human; settings: 10 μM
COLO 205 = test: NCI one-dose screening, colon cancer COLO 205; type: cell-based, human; settings: 10 μM
NCI-H522 = test: NCI one-dose screening, non-small cell lung cancer NCI-H522; type: cell-based, human; settings: 10 μM
OVCAR-4 = test: NCI one-dose screening, ovarian cancer OVCAR-4; type: cell-based, human; settings: 10 μM
HOP-92 = test: NCI one-dose screening, non-small cell lung cancer HOP-92; type: cell-based, human; settings: 10 μM
OVCAR-8 = test: NCI one-dose screening, ovarian cancer OVCAR-8; type: cell-based, human; settings: 10 μM
KM12 = test: NCI one-dose screening, colon cancer KM12; type: cell-based, human; settings: 10 μM
T-47D = test: NCI one-dose screening, breast cancer T-47D; type: cell-based, human; settings: 10 μM
MCF7 = test: NCI one-dose screening, breast cancer MCF7; type: cell-based, human; settings: 10 μM
UO-31 = test: NCI one-dose screening, renal cancer UO-31; type: cell-based, human; settings: 10 μM
HCT-15 = test: NCI one-dose screening, colon cancer HCT-15; type: cell-based, human; settings: 10 μM
UACC-62 = test: NCI one-dose screening, melanoma UACC-62; type: cell-based, human; settings: 10 μM
K562cell line = test: NCI one-dose screening, leukemia K562; type: cell-based, human; settings: 10 μM
A549/ATCC = test: NCI one-dose screening, non-small cell lung cancer A549/ATCC; type: cell-based, human; settings: 10 μM
PRMI-8226 cell line = test: NCI one-dose screening, leukemia PRMI-8226; type: cell-based, human; settings: 10 μM
SK-MEL-2 = test: NCI one-dose screening, melanoma SK-MEL-2; type: cell-based, human; settings: 10 μM
SK-MEL-28 = test: NCI one-dose screening, melanoma SK-MEL-28; type: cell-based, human; settings: 10 μM
MOLT-4 = test: NCI one-dose screening, leukemia MOLT-4; type: cell-based, human; settings: 10 μM
NCI-H23 = test: NCI one-dose screening, non-small cell lung cancer NCI-H23; type: cell-based, human; settings: 10 μM
[2] = test system: PC-3 prostate cancer cell line; test: SRB assay cell viability, PC-3 prostate cancer cell line; type: cell-based, human; settings: Homo sapiens
SN12C = test: NCI one-dose screening, renal cancer SN12C; type: cell-based, human; settings: 10 μM
MDA-MB-231/ATCC = test: NCI one-dose screening, breast cancer MDA-MB-231/ATCC; type: cell-based, human; settings: 10 μM
NCI-H460 = test: NCI one-dose screening, non-small cell lung cancer NCI-H460; type: cell-based, human; settings: 10 μM
HL-60, TB = test: NCI one-dose screening, leukemia HL-60, TB; type: cell-based, human; settings: 10 μM
HCC-2998 = test: NCI one-dose screening, colon cancer HCC-2998; type: cell-based, human; settings: 10 μM
RXF, 393 = test: NCI one-dose screening, renal cancer RXF, 393; type: cell-based, human; settings: 10 μM
LOX IMVI = test: NCI one-dose screening, melanoma LOX IMVI; type: cell-based, human; settings: 10 μM
human tumor cell lines = test: NCI one-dose screening, Mean / Delta / Range of growth percent over all tested cell lines; type: cell-based; settings: 10 μM
BT-549 = test: NCI one-dose screening, breast cancer BT-549; type: cell-based, human; settings: 10 μM

O=C1c2ccccc2C(=O)c2c1cc(SCc1ccccc1)c1nsnc21 [C21, 4-(benzyl-thio)anthra[2,1-c][1,2,5] thiadiazol-6,11-dione]
Growth Percent MDA-MB-435 (MDA, -MB-435): −48.29%
Growth Percent PC-3 (PC-3): 38.44%
Growth Percent SR (SR): 1.25%
Growth Percent TK-10 (TK-10): 129.90%
Growth Percent IGROV1 (IGROV1): 43.88%
Growth Percent SK-OV-3 (SK-OV-3): 80.29%
Growth Percent SNB-75 (SNB-75): 39.58%
Growth Percent UACC-257 (UACC-257): 58.86%
Growth Percent 786-0 (786-O): 92.60%
Growth Percent DU145 (DU145): 82.23%
Growth Percent SF-268 (SF-268): 56.01%
Growth Percent OVCAR-3 (OVCAR-3): 25.27%
Growth Percent HOP-62 (HOP-62): 94.98%
Growth Percent SF-295 (SF-295): 91.56%
Growth Percent HCT-116 (HCT-116): 53.06%
Growth Percent U251 (U251): 30.51%
Growth Percent A498 [1]: 88.61%
Growth Percent NCI/ADR-RES (NCl/ADR-RES): 62.34%
Growth Percent CAKI-1 (CAKI-1): 73.77%
Growth Percent SF-539 (SF-539): 68.26%
Growth Percent CCRF-CEM (CCRF-CEM): 0.65%
Growth Percent NCI-H322M (NCI-H322M): 55.30%
Growth Percent HS 578T (HS 578-T): 59.96%
Growth Percent MDA-MB-468 (MDA-MB-468): −85.29%
Growth Percent M14 (M14): 86.54%
Growth Percent SNB-19 (SNB-19): 94.26%
Growth Percent MALME-3M (MALME-3M): 80.81%
Growth Percent SK-MEL-5 (SK-MEL-5): 22.53%
Growth Percent COLO 205 (COLO 205): 102.93%
Growth Percent NCI-H522 (NCI-H522): 92.01%
Growth Percent OVCAR-4 (OVCAR-4): −68.15%
Growth Percent HOP-92 (HOP-92): 83.65%
Growth Percent OVCAR-8 (OVCAR-8): 6.01%
Growth Percent KM12 (KM12): 103.02%
Growth Percent T-47D (T-47D): −46.11%
Growth Percent MCF7 (MCF7): 56.44%
Growth Percent UO-31 (UO-31): 73.75%
Growth Percent HCT-15 (HCT-15): 54.72%
Growth Percent UACC-62 (UACC-62): 43.08%
Growth Percent K562 (K562cell line): 10.51%
Growth Percent A549/ATCC (A549/ATCC): 101.64%
Growth Percent RPMI-8226 (PRMI-8226 cell line): 43.23%
Growth Percent SK-MEL-2 (SK-MEL-2): −3.95%
Growth Percent SK-MEL-28 (SK-MEL-28): 95.00%
Growth Percent MOLT-4 (MOLT-4): −20.97%
Growth Percent NCI-H23 (NCI-H23): 101.09%
IC50 ([2]; PC-3 prostate cancer cell line, Table II prints no unit, μM printed, read-out: SRB assay: 50% inhibition of cancer cell proliferation of sample concentration (IC50) of PC-3 prostate cancer cell line): > 15 µM
IC50 ([2]; PC-3 prostate cancer cells, read-out: IC50 in PC-3 prostate cancer cells (cell viability analysis)): > 15 µM
Growth Percent SN12C (SN12C): 66.11%
Growth Percent MDA-MB-231/ATCC (MDA-MB-231/ATCC): −13.36%
Growth Percent NCI-H460 (NCI-H460): 98.44%
Growth Percent HL-60(TB) (HL-60, TB): 70.32%
Growth Percent HCC-2998 (HCC-2998): 115.02%
Growth Percent RXF 393 (RXF, 393): 68.12%
Growth Percent LOX IMVI (LOX IMVI): 7.49%
Growth Percent Delta (human tumor cell lines; delta over all cell lines): 136.92%
Growth Percent Mean (human tumor cell lines; mean over all cell lines): 51.63%
Growth Percent Range (human tumor cell lines; range over all cell lines): 215.19%
Growth Percent BT-549 (BT-549): 96.19%
